Common to all, as to type: ADME, organism-based
Data set [1] is described as follows: Terminal elimination half-life in pregnant human patient with uncomplicated multidrug-resistant Plasmodium falciparum malaria at 120 mg, po administered as 4 tablets BID for 3 days coadministered with 20 mg artemether by two-compartment population pharmacokinetic model. To be noted: female, in vivo, read-out: beta t1/2 (converted).
A short description of data set [2]: Drug concentration in pregnant human patient with uncomplicated multidrug-resistant Plasmodium falciparum malaria at 120 mg, po administered as 4 tablets BID for 3 days coadministered with 20 mg artemether measured after 7 days by two-compartment population pharmacokinetic model. To be noted: female, in vivo, read-out: Drug uptake.
Data set [3] concerns Homo sapiens. As to the kind of experiment: Clearance in pregnant human patient with uncomplicated multidrug-resistant Plasmodium falciparum malaria at 120 mg, po administered as 4 tablets BID for 3 days coadministered with 20 mg artemether by two-compartment population pharmacokinetic model. Particulars: in vivo, 72 h.
Data set [4] relates to Homo sapiens. The experiment in a line: Apparent volume of distribution in pregnant human patient with uncomplicated multidrug-resistant Plasmodium falciparum malaria at 120 mg, po administered as 4 tablets BID for 3 days coadministered with 20 mg artemether by two-compartment population pharmacokinetic model. Particulars: in vivo, 72 h.
Data set [5] has as its system Homo sapiens. The experiment in a line: Intercompartmental clearance in pregnant human patient with uncomplicated multidrug-resistant Plasmodium falciparum malaria at 120 mg, po administered as 4 tablets BID for 3 days coadministered with 20 mg artemether by two-compartment population pharmacokinetic model. Particulars: in vivo, 72 h.
The subject of data set [6] is Homo sapiens. As to the kind of experiment: Absorption rate constant in pregnant human patient with uncomplicated multidrug-resistant Plasmodium falciparum malaria at 120 mg, po administered as 4 tablets BID for 3 days coadministered with 20 mg artemether by two-compartment population pharmacokinetic model. To be noted: in vivo, 72 h.
In data set [7] the test system is Homo sapiens. The experiment in a line: Tlag in pregnant human patient with uncomplicated multidrug-resistant Plasmodium falciparum malaria at 120 mg, po administered as 4 tablets BID for 3 days coadministered with 20 mg artemether measured after 7 days by two-compartment population pharmacokinetic model. To be noted: in vivo.
Data set [8] deals with Homo sapiens. As to the kind of experiment: Apparent peripheral volume of distribution in pregnant human patient with uncomplicated multidrug-resistant Plasmodium falciparum malaria at 120 mg, po administered as 4 tablets BID for 3 days coadministered with 20 mg artemether by two-compartment population pharmacokinetic model. Particulars: in vivo, 72 h.
The nature of data set [9]: Cmax in capillary plasma of pregnant human patient with uncomplicated multidrug-resistant Plasmodium falciparum malaria at 120 mg, po administered as 4 tablets BID for 5 days coadministered with 20 mg artemether measured on 7 days by two-compartment population pharmacokinetic model. More on the design: dose 120 mg, route oral. Particulars: female.
Data set [10] has as its system Homo sapiens. The experiment in a line: Volume of distribution at steady state in pregnant human patient with uncomplicated multidrug-resistant Plasmodium falciparum malaria at 120 mg, po administered as 4 tablets BID for 3 days coadministered with 20 mg artemether by two-compartment population pharmacokinetic model. Particulars: in vivo, 72 h.
The nature of data set [11]: Drug concentration in pregnant human patient with uncomplicated multidrug-resistant Plasmodium falciparum malaria at 120 mg, po administered as 4 tablets BID for 3 days coadministered with 20 mg artemether. To be noted: female, in vivo, read-out: Drug uptake.
Data set [12] can be described thus: Cmax in pregnant human patient with uncomplicated multidrug-resistant Plasmodium falciparum malaria at 120 mg, po administered as 4 tablets BID for 3 days coadministered with 20 mg artemether by two-compartment population pharmacokinetic model. Particulars: female, in vivo. More on the design: dose 120 mg, route oral.
Data set [13] can be described thus: Drug concentration in pregnant human with uncomplicated multidrug-resistant Plasmodium falciparum malaria infection at 120 mg, po administered as 4 tablets BID for 3 days coadministered with 20 mg artemether. Particulars: female, in vivo, read-out: Drug uptake.
Data set [14] in a line: Drug concentration in pregnant human patient with reappeared uncomplicated multidrug-resistant Plasmodium falciparum malaria infection at 120 mg, po administered as 4 tablets BID for 3 days coadministered with 20 mg artemether. Particulars: female, in vivo, read-out: Drug uptake.
A short description of data set [15]: Cmax in pregnant human patient with uncomplicated multidrug-resistant Plasmodium falciparum malaria at 120 mg, po administered as 4 tablets BID for 4 days coadministered with 20 mg artemether by two-compartment population pharmacokinetic model. Set-up: dose 120 mg, route oral. To be noted: female, in vivo.
The nature of data set [16]: Cmax in pregnant human patient with uncomplicated multidrug-resistant Plasmodium falciparum malaria at 120 mg, po administered as 4 tablets BID for 4 days coadministered with 20 mg artemether measured after 7 days by two-compartment population pharmacokinetic model. Set-up: dose 120 mg, route oral. To be noted: female, in vivo.
Data set [17] concerns Homo sapiens. The experiment in a line: AUC (0 to infinity) in pregnant human patient with uncomplicated multidrug-resistant Plasmodium falciparum malaria at 120 mg, po administered as 4 tablets BID for 3 days coadministered with 20 mg artemether by two-compartment population pharmacokinetic model. More on the design: dose 120 mg, time infinity, route oral. Particulars: in vivo, 72 h.

Data set [18] is described as follows: Cmax in venous plasma of pregnant human patient with uncomplicated multidrug-resistant Plasmodium falciparum malaria at 120 mg, po administered as 4 tablets BID for 5 days coadministered with 20 mg artemether measured on 7 days by two-compartment population pharmacokinetic model. Set-up: dose 120 mg, route oral. To be noted: female.
Data set [19] in a line: Cmax in pregnant human patient with uncomplicated multidrug-resistant Plasmodium falciparum malaria at 120 mg, po administered as 4 tablets BID for 5 days coadministered with 20 mg artemether measured after 7 days by two-compartment population pharmacokinetic model. More on the design: dose 120 mg, route oral. To be noted: female, in vivo.
Data set [20] is described as follows: Cmax in pregnant human patient with uncomplicated multidrug-resistant Plasmodium falciparum malaria at 120 mg, po administered as 4 tablets BID for 5 days coadministered with 20 mg artemether by two-compartment population pharmacokinetic model. More on the design: dose 120 mg, route oral. Particulars: female, in vivo.

Structures are written as SMILES.

As for `CCCCN(CCCC)CC(O)c1cc(Cl)cc2c1-c1ccc(Cl)cc1/C2=C/c1ccc(Cl)cc1` (stereo not given) [LUMEFANTRINE], in data set [1], the half-life was 79.2 h. The concentration at 168 h in data set [2] was 391 ng/mL. The results for the CL in the data set on Homo sapiens [3] and in the data set on Homo sapiens [5] were 6.11 L/h and 1.82 L/h, respectively. Besides, the Vz stood at 20.2 L in the data set on Homo sapiens [4] and 181 L with Homo sapiens [10]. In the data set with Homo sapiens [6], the Ka is 0.0588 h⁻¹. In addition, in the data set on Homo sapiens [7], the Time came out at 1.67 h. Further, the Vp/F with Homo sapiens [8] was 160 L. Besides, the Cmax amounted to 433 ng/mL in data set [9]; 2080 ng/mL in data set [12]; 2480 ng/mL in data set [15]; 314 ng/mL in data set [16]; 49 ng/mL in data set [18]; 498 ng/mL in data set [19]. Further, the Cmax in [20] is 2430 ng/mL. Moreover, the concentration at 72 h in [11] was 135 ng/mL; in [13], 136 ng/mL; in data set [14] it was 126 ng/mL. Besides, the AUC with Homo sapiens [17] turned out to be 472 µg·h/mL.

For orientation: Cmax means the peak of the concentration-time curve. A word on the AUC: it is the area under the concentration-time curve, a measure of exposure.

These data come from ChEMBL document CHEMBL1687741, “Population pharmacokinetics of lumefantrine in pregnant women treated with artemether-lumefantrine for uncomplicated Plasmodium falciparum malaria” (Antimicrob Agents Chemother, 2009).
